The values that follow come from patent US9056108B2, “Method of treating atrial fibrillation” (Gilead Sciences, Inc., priority 2009, dated 2015).

The subject of assay [1] is canine pulmonary vein (PV) sleeve preparations. The experiment in a line: Superfused pulmonary vein (PV) sleeve preparations. The settings on record: ranolazine 5 μM; for Reduction in Vmax following change of rate: CL 5000 to 300 ms, dronedarone 10 μM (control 13%); for Diastolic threshold of excitation (DTE): CL of 300 ms, from 0.21±0.07; for Diastolic threshold of excitation (DTE) / Shortest pacing CL permitting a 1:1 response: dronedarone 10 μM; for Shortest pacing CL permitting a 1:1 response: untreated controls 116±8. The protocol:
Pulmonary vein (PV) sleeve preparations (approximately 2.0×1.5 cm) were isolated from left canine atria. The thickness of the preparation was approximately 2 mm. […] The preparations were placed in a small tissue bath and superfused with Tyrode's solution of the following composition (mM): 129 NaCl, 4 KCl, 0.9 NaH2PO4, 20 NaHCO3, 1.8 CaCl2, 0.5 MgSO4, 5.5 glucose, buffered with 95% O2/5% CO2 (35±0.5° C.). The PV preparations were stimulated at a basic cycle length (BCL) of 1000 ms during the equilibration period (1 h) using electrical pulses (1-3 ms duration, 2.5 times diastolic threshold intensity) delivered through silver bipolar electrodes insulated except at the tips. Transmembrane potentials were recorded (at a sampling rate of 40 kHz) using glass microelectrodes filled with 3 M KCl (10-20 MΩ DC resistance) connected to a high input-impedance amplification system (World Precision Instruments, model KS-700, New Haven, Conn.). The following parameters were measured: DTE, Vmax, and shortest S1-S1 permitting 1:1 activation. Acetylcholine (ACh, 1 μM), isoproterenol (1 μM), high calcium or their combination were used to induce late phase 3 EADs, DADs and triggered activity.

The subject of assay [2] is isolated canine coronary-perfused right atria. The experiment in a line: Electrophysiology in isolated coronary-perfused canine right atrial preparations. The settings on record: for Shortest S1-S1 (shortest CL permitting 1:1 activation) / APD90 / ERP: ranolazine 5 μM, dronedarone 10 μM; for APD90 / ERP: pectinate muscle, CL of 500 ms. The procedure:
Experiments were performed using isolated coronary-perfused canine right atrial (RA) and left ventricular (LV) preparations (≈3×1.5×1 cm). Isolation and perfusion of the preparations were as previously described.^9, 15, 16 Briefly, preparations were dissected from hearts removed from anesthetized (sodium pentobarbital) adult mongrel dogs (20-30 kg). Unfolded RA with attached rim of the right ventricle was cannulated and perfused with cold cardioplegic solution (4-8° C.) through the ostium of the right coronary artery; the LV wedge was perfused through a diagonal branch of the left anterior descending coronary artery. Unperfused tissue was removed with a razor blade. Cut ventricular and atrial branches were ligated using silk thread. The preparations were then transferred to a temperature-controlled bath and arterially-perfused with Tyrode's solution by use of a roller pump. The composition of the Tyrode's solution was (in mM): NaCl 129, KCl 4, NaH2PO4 0.9, NaHCO3 20, CaCl2 1.8, MgSO4 0.5, and D-glucose 5.5, buffered with 95% O2 and 5% CO2 (37±0.5° C., pH=7.35)
Transmembrane action potential (AP) recordings were obtained using floating glass microelectrodes at a sampling rate of 40 kHz. A pseudo-electrocardiogram (ECG) was recorded using two electrodes consisting of Ag/AgCl half cells placed in the Tyrode's solution bathing the preparation, 1.0 to 1.5 cm from the two opposite sides of the atrial or ventricular coronary-perfused preparations. Conduction time was approximated by the duration of “P wave” in atria and “QRS complex” in ventricles, at a level representing 10% of “P wave” and “QRS” amplitude. Diastolic threshold of excitation (DTE) was determined by increasing stimulus intensity in 0.01 mA steps. Effective refractory period (ERP) was measured by delivering premature stimuli at progressively shorter S1-S2 intervals after every 10 basic beats at a pacing cycle length (CL) of 500 ms (5 ms steps; 2 times DTE). Post-repolarization refractoriness (PRR) was recognized when ERP exceeded action potential duration measured at 90% repolarization (APD90) in the ventricle and APD measured at 70% repolarization (APD70) in atria. Ventricular ERP was coincident with APD90, whereas atrial ERP was generally coincident with APD70-75.^9 The shortest S1-S1 permitting 1:1 activation was measured by progressively shortening pacing CL starting from a CL of 500 ms.
Stable AP recordings could not be readily obtained in the vigorously contracting perfused preparations. The largest recorded maximum rate of rise of the AP upstroke (Vmax) values per experimental condition were taken for statistical comparison. Only APs having amplitudes of at least 100 mV were considered in the analysis. The largest Vmax criterion was used because this was associated with the largest amplitude and the most negative resting membrane potential, depicting full or near full impalement. In determining use-dependent depression of Vmax, values were normalized to the Vmax value at a CL of 500 ms for each experiment and then averaged.
Because of their dependence on peak INa, Vmax, DTE, PRR, and conduction time as well the shortest S1-S1 interval permitting 1:1 activation are referred to as INa-dependent parameters.
The equilibration period for the coronary-perfused preparations was 30-120 min. The preparations were exposed to 5 μM ranolazine, 10 μM dronedarone (after 30 min washout of ranolazine), and the combination of these agents for at a period of at least 20 min. In time-control experiments, 20 minutes was sufficient to achieve steady-state in the effects of each of the drugs to alter electrophysiologic parameters. Recordings were obtained at a cycle length (CL) of 500 and 300 ms, unless otherwise indicated. […] When determining the shortest S1-S1 pacing rate permitting 1:1 activation, the stimulation intensity was DTE x 2, determined at a CL of 500 ms.

Assay [3] deals with ACh-mediated persistent AF in isolated canine coronary-perfused right atria. Put plainly: Acetylcholine (ACh)-mediated persistent AF model in coronary-perfused right atria. The settings on record: for Termination Persistent AF: ACh 1 μM-mediated persistent AF; for Prevention of AF re-induction: after termination of ACh-mediated AF; for Reduction/suppression of persistent AF: canine perfused right atrial preparations; for Induction of Persistent AF: in presence of ACh 1 μM. The procedure: To assess the anti-AF potential of ranolazine, dronedarone, and their combination, we used an acetylcholine (ACh, 1.0 μM)-mediated AF model. In the presence of ACh, premature electrical stimulation (PES) or rapid pacing (CL=50-80 ms) induces persistent AF in 100% of canine coronary-perfused right atrial preparations.^9 The effect of the drugs was assessed to prevent (series 1) the induction of AF. In a separate set of preparations, the ability of these agents was evaluated to terminate (series 2) persistent AF. In the first series, ACh was added to the perfusate 20-30 min after the start of perfusion with 5 μM ranolazine, 10 μM dronedarone, or the combination of these agents. This was followed by attempts to induce the arrhythmia electrically. In the second series, the agents were added to the perfusate during ACh-mediated persistent AF (on the 5-6th minutes after the start of the arrhythmia). In cases in which the drug terminated AF, we attempted to re-induce the arrhythmia with rapid pacing.

For assay [4] the test system is unchanged. The assay is described as above. Conditions: ranolazine 5 μM, dronedarone 10 μM; without ACh.
The mark [5] stands for this setting: 2x threshold stimulus intensity, without ACh, in ms (unit assumed).
[6] abbreviates: ranolazine 5 μM, dronedarone 10 μM.

Regarding `COc1ccccc1OCC(O)CN1CCN(CC(=O)Nc2c(C)cccc2C)CC1` (racemic) [Ranolazine, (±)-N-(2,6-dimethylphenyl)-4-[2-hydroxy-3-(2-methoxyphenoxy)-propyl]-1-piperazineacetamide], in assay [1], the “Reduction in Vmax following change of rate” value is 19%, the “Diastolic threshold of excitation (DTE)” value was 0.24±0.09 mA and the “Shortest pacing CL permitting a 1:1 response” value is 121 ± 13 ms. The “Shortest S1-S1 (shortest CL permitting 1:1 activation)” value (shortened to “Shortest S1-S1”) in assay [2] (setting [5]) is reported as 201 ± 22. In assay [2] (in presence of ACh 1 μM), the “Shortest S1-S1” value is reported as 94 ± 11, the APD90 worked out at 52 ± 6 ms and the ERP is recorded as 72 ± 13 ms. In assay [2] (without ACh), the APD90 amounted to 210 ± 10 ms and the ERP is reported as 181 ± 11 ms. Further, in assay [3] (setting [6]), the “Termination Persistent AF” value stood at 20%, the “Prevention of AF re-induction” value came out at 100% and the “Induction of Persistent AF” value came to 71%. In assay [3], the “Reduction/suppression of persistent AF” value turned out to be 29%. Also, the “Prevention of induction of sustained/persistent AF (atria)” value in assay [3] (pretreatment, then ACh 1 μM, ranolazine 5 μM, dronedarone 10 μM) was 2/7. For the same compound, the “Induction of Persistent AF” value in assay [4] is 0%.
Regarding `CCCCc1oc2ccc(NS(C)(=O)=O)cc2c1C(=O)c1ccc(OCCCN(CCCC)CCCC)cc1` [Dronedarone, N-(2-Butyl-3-(p-(3-(dibutylamino)propoxy)benzoyl)-5-benzofuranyl)methanesulfonamide], in assay [1], the “Reduction in Vmax following change of rate” value is on record as 20%, the “Diastolic threshold of excitation (DTE)” value stood at 0.26±0.09 mA and the “Shortest pacing CL permitting a 1:1 response” value was determined as 120 ± 12 ms. Moreover, in assay [2] (setting [5]), the “Shortest S1-S1” value was found to be 147 ± 11. Further, the “Prolongation of atrial ERP” value in assay [2] (current in vitro investigation) worked out at 9%. Besides, in assay [2] (in presence of ACh 1 μM), the “Shortest S1-S1” value worked out at 88 ± 13, the APD90 is 45 ± 5 ms and the ERP was determined as 59 ± 7 ms. Also, in assay [2] (without ACh), the APD90 came to 202 ± 9 ms and the ERP is recorded as 171 ± 11 ms. For the same compound, in assay [3] (setting [6]), the “Termination Persistent AF” value is listed as 17%, the “Prevention of AF re-induction” value stood at 0% and the “Induction of Persistent AF” value was found to be 83%. Moreover, the “Reduction/suppression of persistent AF” value in assay [3] is given as 17%. Further, in assay [4], the “Induction of Persistent AF” value is 0%.
